Read-outs that look alike come from different tables or passages of the source. Numbered stars: 1 amine (or outer) side, 2 acyl side, 3 side chain; on linkers, the order of the positions; unused ones are H or OH. Bridge positions count the residues as written; N and C are the ends. Square brackets hold non-standard residues; d marks the D form. Peptide text beside a SMILES is read from it. * marks the point of attachment. C20 diacid = O=C(O)CCCCCCCCCCCCCCCCCCC(=O)*; γGlu = O=C(O)[C@H](CCC(=O)[*:2])N[*:1]; NMeI = CC[C@H](C)[C@H](NC)C(=O)O; Sar = CNCC(=O)O
Assays:
[1] = target: T1, human calcitonin receptor (hCTR2) (Homo sapiens, UniProt P30988); test: hCTR2 assay: induction of cAMP (AlphaScreen cAMP Assay kit) in COS7 cells expressing hCTR2; type: cell-based
T1 construct: expressed in transfected cells
T1 sequence (P30988 25-474): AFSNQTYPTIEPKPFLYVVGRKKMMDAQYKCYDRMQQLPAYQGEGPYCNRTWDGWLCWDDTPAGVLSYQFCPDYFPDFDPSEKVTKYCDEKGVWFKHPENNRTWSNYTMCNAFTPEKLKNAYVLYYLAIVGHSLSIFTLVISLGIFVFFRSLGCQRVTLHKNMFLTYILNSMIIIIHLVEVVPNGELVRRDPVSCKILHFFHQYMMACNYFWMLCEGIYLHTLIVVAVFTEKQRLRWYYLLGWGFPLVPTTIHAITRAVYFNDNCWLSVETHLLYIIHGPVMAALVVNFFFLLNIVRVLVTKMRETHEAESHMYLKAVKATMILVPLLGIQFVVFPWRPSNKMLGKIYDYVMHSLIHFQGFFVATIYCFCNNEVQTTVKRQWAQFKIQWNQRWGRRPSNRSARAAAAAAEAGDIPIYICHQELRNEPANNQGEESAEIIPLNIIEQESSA
Outline: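 Stable hCTR2 clone in RAMP-naive COS7 cells; peptides titrated in Tyrode buffer (pH 7.4) with 100 µM IBMX, 0.1% casein, 15 min at 37° C. cAMP read by AlphaScreen after lysis; EC50 and efficacy relative to pramlintide from 4PL fit.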

[2] = Solubility assessment (turbidity absorbance at 325 nm); type: physicochemical; conditions: stock 2 mg/ml diluted 1:1, ambient temperature (typically 25°C), n=1; for Solubility, Acetate buffer pH 4: 100 mM acetate buffer pH 4.0; for Solubility, Acetate buffer pH 5: 100 mM acetate buffer pH 5.0; for Solubility, Histidine buffer pH 6: 100 mM histidine buffer pH 6.0; for Solubility, Histidine buffer pH 7: 100 mM histidine buffer pH 7.0; for Solubility, Phosphate buffer pH 6: 100 mM phosphate buffer pH 6.0; for Solubility, Phosphate buffer pH 7: 100 mM phosphate buffer pH 7.0; for Solubility, Phosphate buffer pH 7.5: 100 mM phosphate buffer pH7.5
Procedure: A stock solution of the test peptide (2 mg/ml; determined from the weighed amount of peptide) in demineralized water adjusted to pH 2.5 with HCI was prepared, and aliquots were diluted 1:1 in 100 mM acetate buffer (pH 4.0 and pH 5.0), 100 mM histidine buffer (pH 6.0 and pH 7.0) and 100 mM phosphate buffer (pH 6.0, pH 7.0 and pH7.5), respectively, and loaded in a standard flat-bottom, non-sterile 96-well UV Microplate. The absorbance of samples (single samples, n=1) at 280 and 325 nm was measured in an absorbance-based plate reader, which was preheated to ambient temperature (typically 25°C). The turbidity absorbance criterion for a peptide solubility of ≥ 1 mg/ml was an absorbance at 325 nm of ≤ 0.02 absorbance units (which is 5 to 6 times the standard deviation of 8 buffer samples in a plate). Solubility data for peptides of the invention, pramlintide, and for a comparison pramlintide derivative denoted NN96 (see Example 5 below for details) are shown in Table 1, below. Table 1. Solubility data for compounds of the invention.

[3] = cAMP induction in COS7 cells expressing hCTR2, average of a minimum of 3 determinations, read-out: hCTR2 EC50

Compound	EC50 [1, 3] [nM]	Solubility, Acetate buffer pH 4 [2]	Solubility, Acetate buffer pH 5 [2]	Solubility, Histidine buffer pH 6 [2]	Solubility, Histidine buffer pH 7 [2]	Solubility, Phosphate buffer pH 6 [2]	Solubility, Phosphate buffer pH 7 [2]	Solubility, Phosphate buffer pH 7.5 [2]	EC50 [1] [nM]
CC[C@H](C)[C@@H](C(=O)N[C@@H](CC(C)C)C(=O)N[C@@H](CO)C(=O)N[C@@H](CO)C(=O)N[C@H](C(=O)N[C@@H](CC(N)=O)C(=O)N[C@H](C(=O)NCC(=O)N[C@@H](CO)C(=O)N[C@@H](Cc1c[nH]cn1)C(=O)N[C@H](C(=O)N[C@@H](Cc1ccc(O)cc1)C(N)=O)[C@@H](C)O)C(C)C)[C@@H](C)O)N(C)C(=O)CN(C)C(=O)[C@H](Cc1ccccc1)NC(=O)[C@H](CC(N)=O)NC(=O)[C@H](CC(N)=O)NC(=O)[C@H](CO)NC(=O)[C@H](CO)NC(=O)[C@H](Cc1c[nH]cn1)NC(=O)[C@H](Cc1c[nH]cn1)NC(=O)[C@H](CC(C)C)NC(=O)[C@H](Cc1ccccc1)NC(=O)[C@H](CCC(=O)O)NC(=O)[C@H](C)NC(=O)[C@H](CC(C)C)NC(=O)[C@H](CCCNC(=N)N)NC(=O)[C@H](CCC(N)=O)NC(=O)[C@@H](NC(=O)[C@H](C)NC(=O)[C@@H]1CSSC[C@H](NC(=O)[C@H](CCCCN)NC(=O)CC[C@H](NC(=O)CCCCCCCCCCCCCCCCCCC(=O)O)C(=O)O)C(=O)N[C@@H](CC(N)=O)C(=O)N[C@@H]([C@@H](C)O)C(=O)N[C@@H](C)C(=O)N[C@@H]([C@@H](C)O)C(=O)N1)[C@@H](C)O [Compound 4, [19CD]-isoGlu-KC()NTATC()ATQRLAEFLHHSSNNF-Gly(Me)-Ile(Me)-LSSTNVGSHTY-NH2] ({C20 diacid-γGlu}-KCNTATCATQRLAEFLHHSSNNF[Sar][NMeI]LSSTNVGSHTY-NH2; disulfide 2-7)	1.3	II (II indicates solubility ≤ 1 mg/ml)	SS (SS indicates solubility ≥ 1mg/ml)	II (II indicates solubility ≤ 1 mg/ml)	II (II indicates solubility ≤ 1 mg/ml)	II (II indicates solubility ≤ 1 mg/ml)	II (II indicates solubility ≤ 1 mg/ml)	II (II indicates solubility ≤ 1 mg/ml)	–
CC[C@H](C)[C@@H](C(=O)N[C@@H](CC(C)C)C(=O)N[C@@H](CO)C(=O)N[C@@H](CO)C(=O)N[C@H](C(=O)N[C@@H](CC(N)=O)C(=O)N[C@H](C(=O)NCC(=O)N[C@@H](CO)C(=O)N[C@@H](CC(N)=O)C(=O)N[C@H](C(=O)N1CCC[C@H]1C(N)=O)[C@@H](C)O)C(C)C)[C@@H](C)O)N(C)C(=O)[C@H](C)NC(=O)CN(C)C(=O)[C@H](Cc1ccccc1)NC(=O)[C@H](CC(N)=O)NC(=O)[C@H](CC(N)=O)NC(=O)[C@H](CO)NC(=O)[C@H](CO)NC(=O)[C@H](Cc1c[nH]cn1)NC(=O)[C@H](Cc1c[nH]cn1)NC(=O)[C@H](CC(C)C)NC(=O)[C@H](Cc1ccccc1)NC(=O)[C@H](CCC(=O)O)NC(=O)[C@H](C)NC(=O)[C@H](CC(C)C)NC(=O)[C@H](CCCNC(=N)N)NC(=O)[C@H](CCC(N)=O)NC(=O)[C@@H](NC(=O)[C@H](C)NC(=O)[C@@H]1CSSC[C@H](NC(=O)[C@H](C)NC(=O)CC[C@H](NC(=O)CCCCCCCCCCCCCCCCCCC(=O)O)C(=O)O)C(=O)N[C@@H](CC(N)=O)C(=O)N[C@@H]([C@@H](C)O)C(=O)N[C@@H](C)C(=O)N[C@@H]([C@@H](C)O)C(=O)N1)[C@@H](C)O [Compound 5, [19CD]-isoGlu-AC()NTATC()ATQRLAEFLHHSSNNF-Gly(Me)-A-Ile(Me)-LSSTNVGSNTP-NH2] ({C20 diacid-γGlu}-ACNTATCATQRLAEFLHHSSNNF[Sar]A[NMeI]LSSTNVGSNTP-NH2; disulfide 2-7)	–	SS (SS indicates solubility ≥ 1mg/ml)	SS (SS indicates solubility ≥ 1mg/ml)	SS (SS indicates solubility ≥ 1mg/ml)	SS (SS indicates solubility ≥ 1mg/ml)	SS (SS indicates solubility ≥ 1mg/ml)	SS (SS indicates solubility ≥ 1mg/ml)	SS (SS indicates solubility ≥ 1mg/ml)	0.75
CC[C@H](C)[C@@H](C(=O)N[C@@H](CC(C)C)C(=O)N[C@@H](CO)C(=O)N[C@@H](CO)C(=O)N[C@H](C(=O)N[C@@H](CC(N)=O)C(=O)N[C@H](C(=O)NCC(=O)N[C@@H](CO)C(=O)N[C@@H](CC(N)=O)C(=O)N[C@H](C(=O)N1CCC[C@H]1C(N)=O)[C@@H](C)O)C(C)C)[C@@H](C)O)N(C)C(=O)[C@H](C)NC(=O)CN(C)C(=O)[C@H](Cc1ccccc1)NC(=O)[C@H](CC(N)=O)NC(=O)[C@H](CC(N)=O)NC(=O)[C@H](CO)NC(=O)[C@H](CO)NC(=O)[C@H](Cc1c[nH]cn1)NC(=O)[C@H](Cc1c[nH]cn1)NC(=O)[C@H](CC(C)C)NC(=O)[C@H](Cc1ccccc1)NC(=O)[C@H](CCC(=O)O)NC(=O)[C@H](C)NC(=O)[C@H](CC(C)C)NC(=O)[C@H](CCCNC(=N)N)NC(=O)[C@H](CCC(N)=O)NC(=O)[C@@H](NC(=O)[C@H](C)NC(=O)[C@@H]1CSSC[C@H](NC(=O)[C@H](CCCCN)NC(=O)CC[C@H](NC(=O)CCCCCCCCCCCCCCCCCCC(=O)O)C(=O)O)C(=O)N[C@@H](CC(N)=O)C(=O)N[C@@H]([C@@H](C)O)C(=O)N[C@@H](C)C(=O)N[C@@H]([C@@H](C)O)C(=O)N1)[C@@H](C)O [Compound 19, [19CD]-isoGlu-KC()NTATC()ATQRLAEFLHHSSNNF-Gly(Me)-A-Ile(Me)-LSSTNVGSNTP-NH2] ({C20 diacid-γGlu}-KCNTATCATQRLAEFLHHSSNNF[Sar]A[NMeI]LSSTNVGSNTP-NH2; disulfide 2-7)	–	SS (SS indicates solubility ≥ 1mg/ml)	SS (SS indicates solubility ≥ 1mg/ml)	SS (SS indicates solubility ≥ 1mg/ml)	SS (SS indicates solubility ≥ 1mg/ml)	SS (SS indicates solubility ≥ 1mg/ml)	SS (SS indicates solubility ≥ 1mg/ml)	SS (SS indicates solubility ≥ 1mg/ml)	0.071
CC[C@H](C)[C@@H](C(=O)N[C@@H](CC(C)C)C(=O)N[C@@H](CO)C(=O)N[C@@H](CO)C(=O)N[C@H](C(=O)N[C@@H](CC(N)=O)C(=O)N[C@H](C(=O)NCC(=O)N[C@@H](CO)C(=O)N[C@@H](CC(N)=O)C(=O)N[C@H](C(=O)N1CCC[C@H]1C(N)=O)[C@@H](C)O)C(C)C)[C@@H](C)O)N(C)C(=O)CN(C)C(=O)[C@H](Cc1ccccc1)NC(=O)[C@H](CC(N)=O)NC(=O)[C@H](CC(N)=O)NC(=O)[C@H](CO)NC(=O)[C@H](CO)NC(=O)[C@H](Cc1c[nH]cn1)NC(=O)[C@H](Cc1c[nH]cn1)NC(=O)[C@H](CC(C)C)NC(=O)[C@H](Cc1ccccc1)NC(=O)[C@H](CCC(=O)O)NC(=O)[C@H](C)NC(=O)[C@H](CC(C)C)NC(=O)[C@H](CCCNC(=N)N)NC(=O)[C@H](CCC(N)=O)NC(=O)[C@@H](NC(=O)[C@H](C)NC(=O)[C@@H]1CSSC[C@H](NC(=O)[C@H](CCCCN)NC(=O)CC[C@H](NC(=O)CCCCCCCCCCCCCCCCCCC(=O)O)C(=O)O)C(=O)N[C@@H](CC(N)=O)C(=O)N[C@@H]([C@@H](C)O)C(=O)N[C@@H](C)C(=O)N[C@@H]([C@@H](C)O)C(=O)N1)[C@@H](C)O [Compound 20, [19CD]-isoGlu-KC()NTATC()ATQRLAEFLHHSSNNF-Gly(Me)-Ile(Me)-LSSTNVGSNTP-NH2] ({C20 diacid-γGlu}-KCNTATCATQRLAEFLHHSSNNF[Sar][NMeI]LSSTNVGSNTP-NH2; disulfide 2-7)	0.094	SS (SS indicates solubility ≥ 1mg/ml)	SS (SS indicates solubility ≥ 1mg/ml)	SS (SS indicates solubility ≥ 1mg/ml)	SS (SS indicates solubility ≥ 1mg/ml)	SS (SS indicates solubility ≥ 1mg/ml)	SS (SS indicates solubility ≥ 1mg/ml)	SS (SS indicates solubility ≥ 1mg/ml)	–

Source: patent EP3046573B1, “AMYLIN ANALOGUES” (Zealand Pharma A/S, priority 2013, dated 2015)
